Experimental data taken from ChEMBL document CHEMBL3885881, “DrugMatrix”.

Species on record: Rattus norvegicus
Test: DrugMatrix - Regimen: Daily Repeat
Type: toxicity, organism-based, Sprague-Dawley
Parameters: regimen Daily Repeat, gender Male, age 6-8 weeks
Conditions: in vivo, sc, route subcutaneous, […]; for ABSOLUTE BASOPHIL / ABSOLUTE EOSINOPHIL / ABSOLUTE LYMPHOCYTE / ABSOLUTE MONOCYTE / ABSOLUTE SEGMENTED NEUTROPHIL / BASOPHIL / EOSINOPHIL / ERYTHROCYTE COUNT / HEMATOCRIT / HEMOGLOBIN / LEUKOCYTE COUNT / LYMPHOCYTE / MEAN CORPUSCULAR HEMOGLOBIN / MEAN CORPUSCULAR VOLUME / MONOCYTE / NEUTROPHIL / NUCLEATED RED BLOOD CELLS / PLATELET COUNT: tissue Blood; for ALANINE AMINOTRANSFERASE / ALBUMIN / ALKALINE PHOSPHATASE / ASPARTATE AMINOTRANSFERASE / BLOOD UREA NITROGEN / CARBON DIOXIDE / CHLORIDE / CHOLESTEROL / CREATINE PHOSPHOKINASE / CREATININE / GLUCOSE / LACTATE DEHYDROGENASE / LIPASE / PHOSPHORUS / POTASSIUM / SODIUM / TOTAL BILIRUBIN / TOTAL PROTEIN / URIC ACID: tissue Plasma
[1] = 3 mg/kg, 72 h, dose level Low, time 3 day
[2] = 3 mg/kg, 120 h, dose level Low, time 5 day
[3] = 30 mg/kg, 72 h, dose level M2, time 3 day
[4] = 30 mg/kg, 120 h, dose level M2, time 5 day

Structure (SMILES): CC(C)(C)CC(C)(C)c1ccc(OCCOCC[N+](C)(C)Cc2ccccc2)cc1.[Cl-] [BENZETHONIUM CHLORIDE]
- ABSOLUTE BASOPHIL [1]: 0 CELLS/uL
- ABSOLUTE EOSINOPHIL [1]: 41 CELLS/uL
- ABSOLUTE LYMPHOCYTE [1]: 15440.33 CELLS/uL
- ABSOLUTE MONOCYTE [1]: 415 CELLS/uL
- ABSOLUTE SEGMENTED NEUTROPHIL [1]: 1437 CELLS/uL
- BASOPHIL [1]: 0%
- EOSINOPHIL [1]: 0.33%
- ERYTHROCYTE COUNT [1]: 5.3 x10E6/uL
- HEMATOCRIT [1]: 33.43%
- HEMOGLOBIN [1]: 12.63 G/DL
- LEUKOCYTE COUNT [1]: 17.33 x10E3/uL
- LYMPHOCYTE [1]: 89.33%
- MEAN CORPUSCULAR HEMOGLOBIN [1]: 23.87 pg
- MEAN CORPUSCULAR VOLUME [1]: 63.13 fL
- MONOCYTE [1]: 2.33%
- NEUTROPHIL [1]: 8%
- NUCLEATED RED BLOOD CELLS [1]: 0 /100WBC
- PLATELET COUNT [1]: 1329.67 x10E3/uL
- ALANINE AMINOTRANSFERASE [1]: 45 u/L
- ALBUMIN [1]: 3.7 G/DL
- ALKALINE PHOSPHATASE [1]: 323.67 u/L
- ASPARTATE AMINOTRANSFERASE [1]: 74 u/L
- BLOOD UREA NITROGEN [1]: 15.67 mg/dL
- CARBON DIOXIDE [1]: 28 mmol/L
- CHLORIDE [1]: 101 MEQ/L
- CHOLESTEROL [1]: 83.33 mg/dL
- CREATINE PHOSPHOKINASE [1]: 130.67 u/L
- CREATININE [1]: 0.18 mg/dL
- GLUCOSE [1]: 149.33 mg/dL
- LACTATE DEHYDROGENASE [1]: 78.67 u/L
- LIPASE [1]: 8.67 u/L
- PHOSPHORUS [1]: 11.23 mg/dL
- POTASSIUM [1]: 6.78 MEQ/L
- SODIUM [1]: 142.67 MEQ/L
- TOTAL BILIRUBIN [1]: 0.23 mg/dL
- TOTAL PROTEIN [1]: 5.93 G/DL
- URIC ACID [1]: 1.53 mg/dL
- ABSOLUTE BASOPHIL [2]: 0 CELLS/uL
- ABSOLUTE EOSINOPHIL [2]: 149.33 CELLS/uL
- ABSOLUTE LYMPHOCYTE [2]: 16956.67 CELLS/uL
- ABSOLUTE MONOCYTE [2]: 380.67 CELLS/uL
- ABSOLUTE SEGMENTED NEUTROPHIL [2]: 2446.67 CELLS/uL
- BASOPHIL [2]: 0%
- EOSINOPHIL [2]: 0.67%
- ERYTHROCYTE COUNT [2]: 5.5 x10E6/uL
- HEMATOCRIT [2]: 34.13%
- HEMOGLOBIN [2]: 12.67 G/DL
- LEUKOCYTE COUNT [2]: 19.93 x10E3/uL
- LYMPHOCYTE [2]: 85.33%
- MEAN CORPUSCULAR HEMOGLOBIN [2]: 23 pg
- MEAN CORPUSCULAR VOLUME [2]: 62.03 fL
- MONOCYTE [2]: 2%
- NEUTROPHIL [2]: 12%
- NUCLEATED RED BLOOD CELLS [2]: 0 /100WBC
- PLATELET COUNT [2]: 1520.67 x10E3/uL
- ALANINE AMINOTRANSFERASE [2]: 63 u/L
- ALBUMIN [2]: 3.47 G/DL
- ALKALINE PHOSPHATASE [2]: 275 u/L
- ASPARTATE AMINOTRANSFERASE [2]: 71.67 u/L
- BLOOD UREA NITROGEN [2]: 14.67 mg/dL
- CARBON DIOXIDE [2]: 27.33 mmol/L
- CHLORIDE [2]: 103 MEQ/L
- CHOLESTEROL [2]: 70.67 mg/dL
- CREATINE PHOSPHOKINASE [2]: 560.33 u/L
- CREATININE [2]: 0.23 mg/dL
- GLUCOSE [2]: 152.67 mg/dL
- LACTATE DEHYDROGENASE [2]: 156.67 u/L
- LIPASE [2]: 10 u/L
- PHOSPHORUS [2]: 11.23 mg/dL
- POTASSIUM [2]: 7.21 MEQ/L
- SODIUM [2]: 144.55 MEQ/L
- TOTAL BILIRUBIN [2]: 0.17 mg/dL
- TOTAL PROTEIN [2]: 5.73 G/DL
- URIC ACID [2]: 1.53 mg/dL
- ABSOLUTE BASOPHIL [3]: 0 CELLS/uL
- ABSOLUTE EOSINOPHIL [3]: 0 CELLS/uL
- ABSOLUTE LYMPHOCYTE [3]: 10787.33 CELLS/uL
- ABSOLUTE MONOCYTE [3]: 579.67 CELLS/uL
- ABSOLUTE SEGMENTED NEUTROPHIL [3]: 1766.33 CELLS/uL
- BASOPHIL [3]: 0%
- EOSINOPHIL [3]: 0%
- ERYTHROCYTE COUNT [3]: 5.13 x10E6/uL
- HEMATOCRIT [3]: 31.77%
- HEMOGLOBIN [3]: 11.87 G/DL
- LEUKOCYTE COUNT [3]: 13.13 x10E3/uL
- LYMPHOCYTE [3]: 83%
- MEAN CORPUSCULAR HEMOGLOBIN [3]: 23.13 pg
- MEAN CORPUSCULAR VOLUME [3]: 61.93 fL
- MONOCYTE [3]: 4.33%
- NEUTROPHIL [3]: 12.67%
- NUCLEATED RED BLOOD CELLS [3]: 0 /100WBC
- PLATELET COUNT [3]: 981 x10E3/uL
- ALANINE AMINOTRANSFERASE [3]: 24.33 u/L
- ALBUMIN [3]: 2.63 G/DL
- ALKALINE PHOSPHATASE [3]: 269 u/L
- ASPARTATE AMINOTRANSFERASE [3]: 71.67 u/L
- BLOOD UREA NITROGEN [3]: 15.33 mg/dL
- CARBON DIOXIDE [3]: 21.67 mmol/L
- CHLORIDE [3]: 101 MEQ/L
- CHOLESTEROL [3]: 45 mg/dL
- CREATINE PHOSPHOKINASE [3]: 122.67 u/L
- CREATININE [3]: 0.15 mg/dL
- GLUCOSE [3]: 140.67 mg/dL
- LACTATE DEHYDROGENASE [3]: 116.67 u/L
- LIPASE [3]: 7 u/L
- PHOSPHORUS [3]: 11.27 mg/dL
- POTASSIUM [3]: 5.61 MEQ/L
- SODIUM [3]: 142.5 MEQ/L
- TOTAL BILIRUBIN [3]: 0.1 mg/dL
- TOTAL PROTEIN [3]: 5.93 G/DL
- URIC ACID [3]: 2.4 mg/dL
- ABSOLUTE BASOPHIL [4]: 0 CELLS/uL
- ABSOLUTE EOSINOPHIL [4]: 0 CELLS/uL
- ABSOLUTE LYMPHOCYTE [4]: 12245 CELLS/uL
- ABSOLUTE MONOCYTE [4]: 1299.67 CELLS/uL
- ABSOLUTE SEGMENTED NEUTROPHIL [4]: 8588.67 CELLS/uL
- BASOPHIL [4]: 0%
- EOSINOPHIL [4]: 0%
- ERYTHROCYTE COUNT [4]: 4.82 x10E6/uL
- HEMATOCRIT [4]: 29.43%
- HEMOGLOBIN [4]: 11.43 G/DL
- LEUKOCYTE COUNT [4]: 22.13 x10E3/uL
- LYMPHOCYTE [4]: 55%
- MEAN CORPUSCULAR HEMOGLOBIN [4]: 23.73 pg
- MEAN CORPUSCULAR VOLUME [4]: 61.07 fL
- MONOCYTE [4]: 6%
- NEUTROPHIL [4]: 39%
- NUCLEATED RED BLOOD CELLS [4]: 0 /100WBC
- PLATELET COUNT [4]: 1372 x10E3/uL
- ALANINE AMINOTRANSFERASE [4]: 31.67 u/L
- ALBUMIN [4]: 2.27 G/DL
- ALKALINE PHOSPHATASE [4]: 363.33 u/L
- ASPARTATE AMINOTRANSFERASE [4]: 89.33 u/L
- BLOOD UREA NITROGEN [4]: 11.67 mg/dL
- CARBON DIOXIDE [4]: 29.33 mmol/L
- CHLORIDE [4]: 101.67 MEQ/L
- CHOLESTEROL [4]: 41.33 mg/dL
- CREATINE PHOSPHOKINASE [4]: 166.67 u/L
- CREATININE [4]: 0.11 mg/dL
- GLUCOSE [4]: 117.33 mg/dL
- LACTATE DEHYDROGENASE [4]: 105.33 u/L
- LIPASE [4]: 7 u/L
- PHOSPHORUS [4]: 10.93 mg/dL
- POTASSIUM [4]: 6.02 MEQ/L
- SODIUM [4]: 143.77 MEQ/L
- TOTAL BILIRUBIN [4]: 0.1 mg/dL
- TOTAL PROTEIN [4]: 5.3 G/DL
- URIC ACID [4]: 1.83 mg/dL
